From PubChem BioAssay (NCI) come the findings set out here.

Some test systems named below: SF-539 CNS; MCF7 breast; HL-60(TB) leukemia; MDA-MB-435; HCT-116 colon; LOX IMVI melanoma; OVCAR-5 ovarian; U251 CNS; NCI-H23 lung; SF-268 CNS.
Common to all, as to test: NCI-60 cell line screen, 48 h

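1) Cells in 96-well plates. 2) Compound, 48 h, 5 concentrations. 3) Linear interpolation between surrounding doses. 4) Unreached endpoint = highest concentration. GI50 marks 50% less growth. At the TGI there is no net growth.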

`Cc1ccc(NS(=O)(=O)c2ccc(-c3cnc(C4CC4)o3)cc2)cc1`: the GI50 in the test with SF-539 CNS is 3.32 µM; in the test on MCF7 breast, 1.55 µM; with HL-60(TB) leukemia, 2.47 µM; with MDA-MB-435, 0.879 µM; in the test with HCT-116 colon it was 2.49 µM; in the test on LOX IMVI melanoma it was 4.88 µM. In addition, the GI50 was 9.28 µM in the test with OVCAR-5 ovarian, 4.18 µM with U251 CNS, 4.1 µM in the test with NCI-H23 lung and 6.19 µM with SF-268 CNS. The TGI in the test with SF-539 CNS was found to be 13 µM; in the test on MCF7 breast, 14.9 µM; in the test on HL-60(TB) leukemia it was 9.71 µM; with MDA-MB-435, 3.94 µM; in the test with HCT-116 colon, 15.2 µM; in the test with LOX IMVI melanoma it was 18.2 µM. Also, the TGI with OVCAR-5 ovarian was determined as 22.6 µM; in the test on U251 CNS, 17.5 µM; in the test on NCI-H23 lung, 17.9 µM; in the test with SF-268 CNS, 21.3 µM.

`CN(C)c1c(Cl)c(=O)oc2c1ccc1nc(-c3ccccc3)sc12`: the TGI with SF-539 CNS, in the test on MCF7 breast, in the test on HL-60(TB) leukemia, in the test on MDA-MB-435, with HCT-116 colon and in the test with LOX IMVI melanoma was greater than 100 µM each time. Further, the TGI in the test on OVCAR-5 ovarian, in the test with U251 CNS, in the test on NCI-H23 lung and with SF-268 CNS was greater than 100 µM throughout.

Turning to `O=S(=O)(c1cccc(C(F)(F)F)c1)N1c2ccccc2-n2cccc2C1c1cccnc1` (centres undefined), the TGI in the test on SF-539 CNS is greater than 60.9 µM; in the test with MCF7 breast it was greater than 76 µM; in the test with HL-60(TB) leukemia, 28.3 µM; in the test on MDA-MB-435 it was greater than 42.2 µM; in the test on HCT-116 colon it was greater than 52 µM; in the test with LOX IMVI melanoma it was greater than 68.7 µM. Moreover, the TGI in the test with OVCAR-5 ovarian was greater than 75.1 µM; in the test with U251 CNS it was greater than 53.1 µM; in the test with NCI-H23 lung, greater than 100 µM; in the test on SF-268 CNS it was greater than 66 µM.

Turning to `O=C(c1ccccc1)c1ccc(-c2ccc(O)cc2)cc1`, the GI50 was 14.6 µM in the test with SF-539 CNS; 0.34 µM in the test on MCF7 breast; 1.89 µM in the test with HL-60(TB) leukemia; 0.328 µM in the test with MDA-MB-435; 8.42 µM with HCT-116 colon; 11.1 µM in the test with LOX IMVI melanoma. The GI50 in the test on OVCAR-5 ovarian was 31 µM; in the test on U251 CNS, 3.69 µM; with NCI-H23 lung it was 6.16 µM; in the test on SF-268 CNS, 5.85 µM. The TGI was 56.9 µM with SF-539 CNS; 25.2 µM with MCF7 breast; 11.1 µM in the test on HL-60(TB) leukemia; 1.55 µM in the test on MDA-MB-435; 44.7 µM with HCT-116 colon; 28.8 µM with LOX IMVI melanoma. The TGI is greater than 100 µM in the test on OVCAR-5 ovarian, 20.1 µM in the test with U251 CNS, 42.7 µM in the test on NCI-H23 lung and 57.3 µM in the test on SF-268 CNS.

Regarding `Nc1ccccc1C#C/C=C\C#Cc1ccc(F)cc1F`, the GI50 is 7.22 µM with SF-539 CNS; 6.28 µM with MCF7 breast; 21.8 µM in the test with HL-60(TB) leukemia; 2.38 µM with MDA-MB-435; 15.4 µM in the test with HCT-116 colon; 6.41 µM in the test on LOX IMVI melanoma. Further, the GI50 is 14.8 µM with OVCAR-5 ovarian, 13.7 µM in the test on U251 CNS, 13.3 µM in the test on NCI-H23 lung and 5.95 µM with SF-268 CNS. Moreover, the TGI in the test on SF-539 CNS is 22.4 µM; in the test on MCF7 breast it was 38.5 µM; with HL-60(TB) leukemia, greater than 100 µM; in the test with MDA-MB-435 it was 6.19 µM; with HCT-116 colon, 31.4 µM; in the test with LOX IMVI melanoma, 19.9 µM. For the same compound, the TGI with OVCAR-5 ovarian is 29.6 µM; with U251 CNS, 26.5 µM; in the test with NCI-H23 lung it was 32.2 µM; with SF-268 CNS it was 25.4 µM.

Turning to `CCCOC(=O)N[C@H]1CCc2c(Br)c(OC)c(OC)c(OC)c2-c2ccc(SC)c(=O)cc21`, the GI50 with SF-539 CNS is 0.0213 µM; in the test on MCF7 breast it was less than 0.01 µM; in the test on HL-60(TB) leukemia it was 0.0245 µM; in the test with MDA-MB-435, less than 0.01 µM; in the test on HCT-116 colon, 0.0248 µM; in the test with LOX IMVI melanoma, less than 0.0177 µM. Moreover, the GI50 in the test on OVCAR-5 ovarian is 0.0501 µM; with U251 CNS, 0.0363 µM; with NCI-H23 lung, 0.0348 µM; in the test on SF-268 CNS, 0.0455 µM. Besides, the TGI was found to be 0.0688 µM in the test with SF-539 CNS; 12.2 µM in the test with MCF7 breast; 0.0784 µM with HL-60(TB) leukemia; 0.0189 µM in the test on MDA-MB-435; 5.07 µM with HCT-116 colon; 11.5 µM in the test with LOX IMVI melanoma. In addition, the TGI was 34.5 µM in the test on OVCAR-5 ovarian, 15.1 µM in the test on U251 CNS, greater than 57.3 µM in the test with NCI-H23 lung and 17.8 µM with SF-268 CNS.

For `Cn1ncc2c(Nc3ccc(Br)cc3)nc(Nc3ccc(Br)cc3)nc21`, the GI50 with SF-539 CNS is 3.17 µM; in the test with MCF7 breast, 2.61 µM; in the test with HL-60(TB) leukemia, 1.44 µM; in the test with MDA-MB-435, 2.86 µM; in the test on HCT-116 colon, 3.22 µM; with LOX IMVI melanoma it was 1.77 µM. Besides, the GI50 was 11.3 µM in the test on OVCAR-5 ovarian, 2.89 µM in the test with U251 CNS, 3.63 µM in the test with NCI-H23 lung and 5.11 µM in the test on SF-268 CNS. Besides, the TGI in the test on SF-539 CNS was 10.8 µM; with MCF7 breast it was 10.9 µM; in the test with HL-60(TB) leukemia, 5.85 µM; with MDA-MB-435, 10.7 µM; in the test with HCT-116 colon, 11.9 µM; with LOX IMVI melanoma it was 3.36 µM. Further, the TGI in the test with OVCAR-5 ovarian was found to be 24.1 µM; in the test on U251 CNS it was 10 µM; in the test on NCI-H23 lung, 16.2 µM; with SF-268 CNS, 15.8 µM.

On to `O=C(Cn1ccnc1[N+](=O)[O-])N(CCO)CCO`, for which the GI50 was greater than 1250 µM in the test on SF-539 CNS; greater than 250 µM with MCF7 breast; greater than 1250 µM with HL-60(TB) leukemia; greater than 1250 µM with HCT-116 colon; greater than 250 µM in the test with LOX IMVI melanoma; greater than 1250 µM in the test on OVCAR-5 ovarian. Moreover, the GI50 in the test on U251 CNS, in the test on NCI-H23 lung and with SF-268 CNS was greater than 1250 µM throughout. For the same compound, the TGI was greater than 1250 µM with SF-539 CNS; greater than 1250 µM in the test on MCF7 breast; greater than 1250 µM in the test with HL-60(TB) leukemia; greater than 250 µM in the test with MDA-MB-435; greater than 1250 µM with HCT-116 colon; greater than 1250 µM in the test on LOX IMVI melanoma. In addition, the TGI in the test on OVCAR-5 ovarian, with U251 CNS, in the test with NCI-H23 lung and in the test on SF-268 CNS was greater than 1250 µM each time.
